Assay results reported in patent publication US6020360A, “Anticancer property of dithiolopyrrolones” (priority 1996, dated 2000).
Values after ≈ are worked out from the molar mass of the structure shown. Each block holds one compound with its values, some of them ahead of it.

Tests used:
[1] = test system: cervical cancer cell line Hela; assay: Anticancer activity, SRB growth assay in cervical cancer cell line Hela (3 days); type: cell-based; conditions: Homo sapiens, 72 h, 2,500 cells/well, 570 nm, 0.008-1 μg/ml tested
Protocol: (§1) These assays are commonly used by those skilled in the art and are accepted as indicative of anticancer activity in mammals. The anticancer activities of dithiolopyrrolones have been determined in cell cultures of human colon cancer cell line HT-29, breast cancer cell line MCF-7 and cervical cancer cell line Hela. The procedure was carried out using the method described by Skehan et al. (1990). Briefly, cancer cells were grown in RPMI-1640 medium with glutamine and 10% fetal calf serum, and were harvested from exponential-phase maintenance cultures. The harvested cells were counted and dispensed into replicate 96-well culture plates in 180 μl volumes for each well with a cell density of 2,500 cells/well. The cells were allowed to settle for about 4 hours at 37° C. Then 20 μl of medium containing the test dithiolopyrrolone was added into each well, resulting in a final test compound concentration between 0.008-1 μg/ml. The test plates were then incubated at 37° C. The test was terminated 3 days after incubation by adding to each well 50 μl of cold 50% trichloroacetic acid. The cells were fixed for an hour at 4° C. and then washed five times with tap water. The washed plates were air-dried and stained for 30 minutes with 0.4% (wt/vol) sulforhodamine B (SRB) which was dissolved in 1% acetic acid. At the end of the staining period, the SRB was removed and plates were quickly rinsed, five times with 1 % acetic acid. After being rinsed, the plates were air-dried and 100 μl of 10 mM tris base (pH 10.5) were added to each well to solubilize the dye bound to the cells. The plates were placed on a gyratory shaker and shaken (100 rpm) for 10 minutes. Finally, the plates were read in a microtiter plate reader at 570 nm.

[2] = test system: ornithin decarboxylase (ODC); conditions: Sharma et al., 1994; cited from earlier work
[3] = test system: mammary cells; conditions: mammary cells exposed to carcinogens; Menta and Moon, 1991; Arnold et al., 1995; cited from earlier work
[4] = test system: breast cancer cell line MCF-7; assay: Anticancer activity, SRB growth assay in breast cancer cell line MCF-7 (3 days); type: cell-based; conditions: Homo sapiens, MCF7, 72 h, 2,500 cells/well, 570 nm, 0.008-1 μg/ml tested
Protocol: as §1, with “At the end of the staining period, the SRB was removed and plates were quickly rinsed, five times with 1 % acetic acid. After being rinsed, the plates were air-dried and 100 μl of 10 mM tris base (pH 10.5) were added to each well to solubilize the dye bound to the cells. The plates were placed on a gyratory shaker and shaken (100 rpm) for 10 minutes.” left out

[5] = test system: human colon cancer cell line HT-29; assay: Anticancer activity, SRB growth assay in human colon cancer cell line HT-29 (3 days); type: cell-based; conditions: HT-29, 72 h, HT29, 2,500 cells/well, 570 nm, 0.008-1 μg/ml tested
Protocol: as §1, with “At the end of the staining period, the SRB was removed and plates were quickly rinsed, five times with 1 % acetic acid. After being rinsed, the plates were air-dried and 100 μl of 10 mM tris base (pH 10.5) were added to each well to solubilize the dye bound to the cells. The plates were placed on a gyratory shaker and shaken (100 rpm) for 10 minutes.” left out

[6] = test system: glutathione; conditions: Sharma et al., 1994; cited from earlier work
[7] = test system: platelet aggregation; conditions: in vitro; Ninomiya et al., 1980; cited from earlier work
[8] = test system: membrane; conditions: Ninomiya et al., 1980; cited from earlier work
[9] = test system: RNA polymerase; conditions: Jimenez et al., 1973, Tipper; cited from earlier work

IC50 [1]: 0.09 µg/mL (≈ 0.316 µM)
SMILES: CC(C)CCCC(=O)Nc1c2sscc-2[nH]c1=O [XN3, N-(4,5-dihydro-5-oxo-1,2-dithiolo[4,3-b]pyrrol-6-yl)5-methylhexanoamide]

IC50 [1]: 0.13 µg/mL (≈ 0.457 µM)
SMILES: CCCCCC(=O)Nc1c2sscc-2n(C)c1=O [XN1, N-(4,5-dihydro-4-methyl-5-oxo-1,2-dithiolo[4,3-b]pyrrol-6-yl)hexanoamide]

SMILES: CC(=O)Nc1c2sscc-2n(C)c1=O [XN0, N-(4,5-dihydro-4-methyl-5-oxo-1,2-dithiolo[4,3-b]pyrrol-6-yl)acetamide]
inhibition of ODC (in words) [2]: inhibits OCD
IC50 [1]: 0.07 µg/mL (≈ 0.307 µM)
inhibition of promotion of carcinogenesis-associated activities (in words) [3]: inhibits the promotion of several other activities possibly associated with the occurrence of carcinogenesis in mammary cells
IC50 [4]: 0.08 µg/mL (≈ 0.35 µM)
IC50 [5]: 0.03 µg/mL (≈ 0.131 µM)
reduction of glutathione (in words) [6]: induces the reduction of glutathione
inhibition of platelet aggregation (in words) [7]: inhibits platelet aggregation in vitro
membrane stabilization activity (in words) [8]: has membrane stabilization activity
inhibition of RNA polymerase synthesis (in words) [9]: inhibits RNA polymerase synthesis
